Assay results reported in PubChem BioAssay (NCI).
Values joined by “and” are separate entries in the source; they are usually repeats but may differ in a detail not shown here. Equal values may be shown once.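 Each compound was tested at five concentrations against cells in 96-well plates for 48 hours. GI50 marks 50% less growth. The concentration for full growth arrest is given as TGI.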

How the values were obtained:
Experiment in all cases: NCI anticancer screen, dose series, 48 h
[1] = system: U251 CNS
[2] = system: HL-60(TB) leukemia
[3] = system: HS 578T breast
[4] = system: MCF7 breast
[5] = system: OVCAR-8 ovarian
[6] = system: NCI-H460 lung
[7] = system: SNB-19 CNS
[8] = system: HCC-2998 colon
[9] = system: A549 NSCLC
[10] = system: OVCAR-5 ovarian

SMILES	TGI [1] [µM]	TGI [2] [µM]	TGI [3] [µM]	TGI [4]	TGI [5] [µM]	TGI [6]	TGI [7] [µM]	TGI [8] [µM]	TGI [9] [µM]	TGI [10] [µM]	GI50 [1] [µM]	GI50 [3] [µM]	GI50 [7] [µM]	GI50 [2]	GI50 [6]
COc1ccc2oc(=O)c(-c3cc4c(c(C)n3)c(=O)oc3ccc(OC)cc34)cc2c1	> 100	> 100	83.5	> 100 µM	> 100	> 100 µM	57.6	> 100	> 100						
CN(C)c1cccc2c(S(=O)(=O)NCCN)cccc12	> 100	> 100	> 100			> 100 µM	> 100	> 100	> 100	> 100					
COc1c(OC2OC(CO)C(O)C(O)C2O)cc2c(c1OC)-c1ccc(OC)c(=O)cc1C(NC(C)=O)CC2 (centres undefined)	> 100	> 100			> 100	> 100 µM	> 100	> 100	> 100	> 100					
Cc1ccc(NC(=O)CC/C(CC(=O)C(C)(C)C)=N/NC(=O)c2cc3ccccc3cc2O)cc1C	> 100	> 100			> 100	> 100 µM	> 100	55		> 100					
CN(Cc1cnc2nc(N)nc(N)c2n1)c1ccc(C(=O)NC(CCC(=O)O)C(=O)O)c2ccccc12 (centres undefined)	> 1000	> 1000	> 1000	> 1000 µM	> 1000	> 1000 µM	> 1000		> 1000	> 1000	293	> 1000	< 0.0174		
COC(=O)C(Cc1ccccc1)NC(=O)C(CNC(=O)OCc1ccccc1)C(=O)OCc1ccccc1 (centres undefined)	> 100	> 100	> 100	> 100 µM and 79.8 µM	> 100	> 100 µM and 36.5 µM	> 100	> 100		> 100		59		> 100 µM and 21.6 µM	94.1 µM and 13.5 µM
O=C(O)C1CCC(=O)N1C(=O)COc1cc(Cl)c(Cl)cc1Cl (centres undefined)	> 100				> 100	> 100 µM	> 100		> 100	> 100					
COCOC1CCCC[C@@]1(OCCOCCO[C@@]1(c2ccccc2)CCCC[C@H]1OCOC)c1ccccc1 (some centres undefined)	> 100	> 100			> 100	> 100 µM	> 100	> 100	> 100	> 100					
COc1ccc(O[C@H](CO)C[C@@H]2COC(C)(C)O2)cc1	> 100			> 100 µM	> 100	> 100 µM	> 100	> 100	> 100	> 100					
CC(=O)CCC1(C(=O)OCC(C)C)CCCC1=O (centres undefined)	> 100	> 100	> 100		> 100	> 100 µM	> 100		> 100	> 100					
CC(C)(C)C(=O)c1c(O)c2ccccc2c2ccccc2c1=O	> 100	> 100	> 100	> 100 µM	> 100	> 100 µM	> 100		> 100	> 100					
CC(=O)OC12c3ccccc3C(c3ccccc31)C1C(=O)N(N=C(C)C)C(=O)C12 (centres undefined)	> 100	> 100	> 100	> 100 µM	> 100		> 100	> 100	> 100	> 100					
